In PubChem BioAssay (NCI):
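Test compounds were applied to cells in 96-well plates for 48 hours at 5 doses. GI50 is the concentration that inhibits growth by half. TGI denotes the concentration required for complete inhibition of growth.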

Legend:
Experiment in all cases: NCI anticancer screen, dose series, 48 h
SF-539 CNS = system: SF-539 CNS
MDA-MB-231 breast = system: MDA-MB-231 breast
COLO 205 colon = system: COLO 205 colon
MDA-MB-435 = system: MDA-MB-435
U251 CNS = system: U251 CNS
SK-MEL-28 melanoma = system: SK-MEL-28 melanoma
UACC-257 melanoma = system: UACC-257 melanoma
A549 NSCLC = system: A549 NSCLC
SNB-75 CNS = system: SNB-75 CNS
NCI-H522 lung = system: NCI-H522 lung
TK-10 renal = system: TK-10 renal
SK-MEL-5 melanoma = system: SK-MEL-5 melanoma
BT-549 breast = system: BT-549 breast

Row | Structure (SMILES) | TGI (SF-539 CNS) [µM] | TGI (MDA-MB-231 breast) [µM] | TGI (COLO 205 colon) [µM] | TGI (MDA-MB-435) [µM] | TGI (U251 CNS) [µM] | TGI (SK-MEL-28 melanoma) [µM] | TGI (UACC-257 melanoma) [µM] | TGI (A549 NSCLC) [µM] | TGI (SNB-75 CNS) [µM] | TGI (NCI-H522 lung) [µM] | TGI (TK-10 renal) [µM] | TGI (SK-MEL-5 melanoma) [µM] | TGI (BT-549 breast) [µM] | GI50 (SF-539 CNS) [µM] | GI50 (COLO 205 colon) [µM] | GI50 (MDA-MB-435) [µM] | GI50 (SNB-75 CNS) [µM]
1 | N#CC(C#N)=Cn1c(=S)[nH]c2ccc([N+](=O)[O-])cc21 | > 100 | > 100 | > 100 | > 100 | > 100 | > 100 | > 100 | > 100 | > 100 | > 100 | > 100 | > 100 |  |  |  |  | 
2 | Cc1ccc(O)c(C(c2cc(C)ccc2O)c2cc([N+](=O)[O-])ccc2O)c1 | 33.9 | 22.3 | 45.9 | 45.3 | 46.4 | 39.6 | 37.6 | 31.2 | 21.2 | 30 | 34.8 | > 100 |  |  |  |  | 
3 | CN1CCN(Cc2ccccc2)CC1CC#N (stereo unspecified) | > 100 | > 100 | > 100 | > 100 | > 100 | > 100 | > 100 | > 100 | > 100 |  | > 100 | > 100 | > 100 |  |  |  | 
4 | CCC(=O)CCC1=Nc2nnc(CCCCc3nnc4n3C(=O)C(CCC(=O)CC)=N4)n2C1=O | > 100 |  | > 100 |  |  | > 100 | > 100 | > 100 | > 100 | > 100 | > 100 |  |  |  |  |  | 
5 | COc1ccc(/C=C/c2nc(=S)[nH][nH]2)cc1OC | > 100 |  |  |  | > 100 | > 100 | > 100 | > 100 | > 100 |  | > 100 | > 100 |  |  |  |  | 
6 | c1cc2c3ccsc3c3sccc3c2s1 | > 100 | > 100 | > 100 | > 100 | > 100 | > 100 | > 100 | > 100 | > 100 |  | > 100 | > 100 | > 100 |  |  |  | 
7 | O=C1c2c(O)cccc2Cc2cc(CO)cc(O)c21 |  | 5.67 | 4.9 | 15.5 | 10.7 | 27.3 | 5.64 | 9.08 | 5.44 |  | 14.9 | 3.75 | 86 |  |  |  | 
8 | Clc1ccc(N2N=C(c3cccc(Nc4ccncc4)c3)CC2c2ccc(Br)cc2)cc1 (stereo unspecified) | 3.26 |  | 4.76 | 3.08 |  |  |  |  | 2.9 |  |  |  |  | 1.74 | 2.26 | 1.65 | 1.41
9 | O=C(NC(CCCCN1C(=O)c2ccccc2C1=O)P(=O)(Oc1ccccc1)Oc1ccccc1)OCc1ccccc1 (stereo unspecified) | > 100 |  | > 100 | > 100 | > 100 | > 100 | > 100 | > 100 | > 100 | > 100 | > 100 | > 100 | > 100 |  |  |  | 
10 | CC1OC(CC2C=CCc3c(O)c4c(c(O)c32)C(=O)c2ccccc2C4=O)CC(NC(=O)C(F)(F)F)C1O (stereo unspecified) | 15 |  | 53.4 |  | 15.4 | 16.1 | 26.8 |  | 5.8 | 44.9 | 10.9 | 27.3 |  |  |  |  | 
11 | COC1OC(Cn2cc([N+](=O)[O-])nc2C)C(O)C(O)C1O (stereo unspecified) |  | > 100 | > 100 | > 100 | > 100 | > 100 | > 100 | > 100 |  | > 100 |  | > 100 |  |  |  |  | 
12 | CC(O)C1OC(n2ccc(=O)[nH]c2=O)CC1n1cncn1 (stereo unspecified) |  |  | > 100 |  | > 100 | > 100 | > 100 | > 100 | > 100 | > 100 | > 100 | > 100 |  |  |  |  | > 100
13 | COc1ccc(NC(=O)NNS(=O)(=O)c2ccc(C)cc2)cc1 | > 100 | > 100 | > 100 | > 100 | > 100 | > 100 | > 100 | > 100 | > 100 | > 100 | > 100 | > 100 |  |  |  |  | 
14 | CN(C(=O)c1ccccc1)c1ccc2c(c1)C(=O)c1ccccc1C2=O |  |  | > 100 |  | > 100 | > 100 | > 100 |  |  | > 100 | > 100 |  |  |  |  |  | 
15 | C1=Cc2cccc3occ(c23)C=C1 | > 100 | > 100 | 90.7 | > 100 | > 100 | > 100 | > 100 | > 100 |  | > 100 | > 100 | > 100 | > 100 |  |  |  | 
16 | COc1cccc(CCn2c(N)c(C#N)c3ccc([N+](=O)[O-])cc3c2=O)c1 |  | > 46.4 | > 100 | > 100 | > 100 | > 100 | > 31.6 | > 46.4 | > 46.4 |  | > 46.4 | > 100 |  |  |  |  | 
17 | N[C@H]1CCN(c2c(F)cc3c(=O)c(C(=O)O)cn4c3c2Oc2c-4ccc3c2ccc2ccccc23)C1 | > 100 | > 100 | > 100 | > 39.6 | 6.76 | > 100 |  | > 100 |  |  |  | > 100 | > 69.3 |  |  |  | 
18 | C[C@H]1S[C@H](c2c(F)cccc2F)n2c1nc1ccccc12 |  | > 100 | > 100 | > 100 | > 100 | > 100 | > 100 | > 100 | > 100 |  | > 100 | 45.3 | > 100 |  |  |  | 
19 | O=C(CCN1CCCC1)c1ccc(Oc2ccc(F)cc2)cc1 | > 100 | > 100 | 56.7 | > 100 | > 100 | > 100 | > 100 | > 100 | > 100 |  | > 100 | > 100 | > 100 |  |  |  | 
20 | CCOC(=O)c1ccc(N(CCOS(=O)(=O)c2ccc(C)cc2)CCOS(=O)(=O)c2ccc(C)cc2)cc1 | 41.1 | 86.8 | > 100 | > 100 | 46.6 |  | > 100 | > 100 |  | > 100 | > 100 | > 100 | > 100 |  |  |  | 
